Measurements taken from PubChem BioAssay (NCI).
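Method: 48-hour compound exposure of cells in 96-well plates, five concentrations, linear interpolation of endpoints. GI50 = concentration required for 50% inhibition of growth. TGI denotes the concentration required for complete inhibition of growth.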

Assays:
Assay in all cases: NCI tumour cell line growth inhibition, 48 h
[1] = tested on: 786-0 renal
[2] = tested on: A498 renal
[3] = tested on: A549 NSCLC
[4] = tested on: ACHN renal
[5] = tested on: BT-549 breast
[6] = tested on: CAKI-1 renal
[7] = tested on: CCRF-CEM leukemia
[8] = tested on: COLO 205 colon
[9] = tested on: DU-145 prostate
[10] = tested on: EKVX NSCLC
[11] = tested on: HCC-2998 colon
[12] = tested on: HCT-116 colon
[13] = tested on: HCT-15 colon
[14] = tested on: HL-60(TB) leukemia
[15] = tested on: HOP-62 NSCLC
[16] = tested on: HOP-92 NSCLC
[17] = tested on: HS 578T breast
[18] = tested on: HT29 colon
[19] = tested on: IGROV1 ovarian
[20] = tested on: K-562 leukemia
[21] = tested on: KM12 colon
[22] = tested on: LOX IMVI melanoma
[23] = tested on: M14 melanoma
[24] = tested on: MALME-3M melanoma
[25] = tested on: MCF7 breast
[26] = tested on: MDA-MB-231 breast
[27] = tested on: MDA-MB-435
[28] = tested on: MOLT-4 leukemia
[29] = tested on: NCI-H226 lung
[30] = tested on: NCI-H23 lung
[31] = tested on: NCI-H460 lung
[32] = tested on: NCI-H522 lung
[33] = tested on: NCI/ADR-RES ovarian
[34] = tested on: OVCAR-3 ovarian
[35] = tested on: OVCAR-4 ovarian
[36] = tested on: OVCAR-5 ovarian
[37] = tested on: OVCAR-8 ovarian
[38] = tested on: PC-3 prostate
[39] = tested on: RPMI-8226 leukemia
[40] = tested on: RXF 393 renal
[41] = tested on: SF-268 CNS
[42] = tested on: SF-295 CNS
[43] = tested on: SF-539 CNS
[44] = tested on: SK-MEL-2 melanoma
[45] = tested on: SK-MEL-28 melanoma
[46] = tested on: SK-MEL-5 melanoma
[47] = tested on: SK-OV-3 ovarian
[48] = tested on: SN12C renal
[49] = tested on: SNB-19 CNS
[50] = tested on: SNB-75 CNS
[51] = tested on: SR leukemia
[52] = tested on: SW-620 colon
[53] = tested on: T-47D breast
[54] = tested on: TK-10 renal
[55] = tested on: U251 CNS
[56] = tested on: UACC-257 melanoma
[57] = tested on: UACC-62 melanoma
[58] = tested on: UO-31 renal

## CC(C)NC(=O)OCc1c(COC(=O)NC(C)C)c(-c2ccc(Cl)cc2)n2c1CCC2
[1]
  GI50: 2750 nM
  TGI: 8.68 µM
[2]
  GI50: 1920 nM
  TGI: 4.46 µM
[3]
  GI50: 8.12 µM
  TGI: 33.5 µM
[4]
  GI50: 1340 nM
  TGI: 9.19 µM
[5]
  GI50: 2400 nM
  TGI: 15.1 µM
[6]
  GI50: 534 nM
  TGI: 3.83 µM
[7]
  GI50: 1040 nM
  TGI: > 33.4 µM
[8]
  GI50: 4.26 µM
  TGI: 17.1 µM
[9]
  GI50: 2100 nM
  TGI: 7.18 µM
[10]
  GI50: 4.09 µM
  TGI: 32.9 µM
[11]
  GI50: 6.77 µM
  TGI: 20.4 µM
[12]
  GI50: 3.54 µM
  TGI: 17.5 µM
[13]
  GI50: 4.07 µM
  TGI: > 50.1 µM
[14]
  GI50: 790 nM
  TGI: 9.21 µM
[15]
  GI50: 3.05 µM
  TGI: 16.2 µM
[16]
  GI50: 1410 nM
  TGI: 5.09 µM
[17]
  GI50: 2910 nM
  TGI: 11.8 µM
[18]
  GI50: 4.02 µM
  TGI: 26.4 µM
[19]
  GI50: 1590 nM
  TGI: 10.2 µM
[20]
  GI50: 2650 nM
  TGI: > 26.1 µM
[21]
  GI50: 11 µM
  TGI: 25.9 µM
[22]
  GI50: 2400 nM
  TGI: 13.6 µM
[23]
  GI50: 2990 nM
  TGI: 11.1 µM
[24]
  GI50: 2360 nM
  TGI: 9.69 µM
[25]
  GI50: 3.59 µM
  TGI: 33.4 µM
[26]
  GI50: 2960 nM
  TGI: 12.3 µM
[27]
  GI50: 5.04 µM
  TGI: 19.8 µM
[28]
  GI50: 1420 nM
  TGI: > 26.2 µM
[29]
  GI50: 2310 nM
  TGI: 11.3 µM
[30]
  GI50: 2150 nM
  TGI: 12.5 µM
[31]
  GI50: 751 nM
  TGI: 14.4 µM
[32]
  GI50: 1770 nM
  TGI: 5.66 µM
[33]
  GI50: 3.05 µM
  TGI: 16.8 µM
[34]
  GI50: 3.08 µM
  TGI: 10.3 µM
[35]
  GI50: 2700 nM
  TGI: 14.3 µM
[36]
  GI50: 3.3 µM
  TGI: 13.5 µM
[37]
  GI50: 4.1 µM
  TGI: > 85.5 µM
[38]
  GI50: 3.32 µM
  TGI: 25.2 µM
[39]
  GI50: 2600 nM
  TGI: 23.8 µM
[40]
  GI50: 1850 nM
  TGI: 4.32 µM
[41]
  GI50: 2250 nM
  TGI: 13.5 µM
[42]
  GI50: 1580 nM
  TGI: 10.6 µM
[43]
  GI50: 2530 nM
  TGI: 9.72 µM
[44]
  GI50: 4.23 µM
  TGI: 17.4 µM
[45]
  GI50: 7.52 µM
  TGI: 22.2 µM
[46]
  GI50: 5.21 µM
  TGI: 18.3 µM
[47]
  GI50: 2920 nM
  TGI: 12.5 µM
[48]
  GI50: 2290 nM
  TGI: 15.4 µM
[49]
  GI50: 4.65 µM
  TGI: 21.7 µM
[50]
  GI50: 1700 nM
  TGI: 8.44 µM
[51]
  GI50: 218 nM
[52]
  GI50: 3.35 µM
  TGI: 19.2 µM
[53]
  GI50: 3.9 µM
  TGI: 20.9 µM
[54]
  GI50: 1980 nM
  TGI: 7.97 µM
[55]
  GI50: 2880 nM
  TGI: 35.2 µM
[56]
  GI50: 4.16 µM
  TGI: 29.4 µM
[57]
  GI50: 2080 nM
  TGI: 7.56 µM
[58]
  GI50: 2050 nM
  TGI: 6.8 µM
